Data published in article PMC10525445, “Antitrypanosomal Activity of 1,2,3-Triazole-Based Hybrids Evaluated Using In Vitro Preclinical Translational Models” (Biology, 2023).

How the values were obtained:
[1] = tested on: VERO cells; assay: Cytotoxicity on VERO cell monolayers (CellTiter Glo, 72 h); assay type: cell-based; settings: ATP level
Description: (§1) VERO cells (Rio de Janeiro Cell Bank code 0245) were cultivated in RPMI 1640 medium supplemented with 10% fetal bovine serum (FBS) at 37 °C in a humidified atmosphere of 5% CO2. Confluent monolayers were dissociated with trypsin-EDTA solution (0.025%), and isolated cells were seeded on culture plates or flasks, depending on the experimental assay. The VERO cell cultures were used in cytotoxicity and phenotypic screening assays and for obtaining culture-derived trypomastigotes. The toxic effect of the triazole series was evaluated on VERO cell monolayers. After seeding for 24 hours, VERO cells were treated for 72 h at 37 °C with the 1,2,3-triazole derivatives and Bz, the reference drug, with a range of concentration from 15.62 to 500 µM. Controls were performed with a non-toxic concentration of dimethyl sulfoxide (DMSO; ≤0.1%) used in the experimental assays. Cell viability was determined by measuring ATP level using a CellTiter Glo kit. The luminescence read was performed using a Glomax microplate reader (Promega Corporation, Madison, WI, EUA). The cytotoxicity concentration 50 (CC50), the drug concentration that reduces cell viability by 50%, was calculated using linear regression. […] Cultures were exposed for 72 h to compound concentrations up to 500 µM, following the protocol mentioned above. At least 3 independent assays were performed in duplicate.

[2] = tested on: 3D cardiac microtissue (heart muscle cells); assay: Cardiotoxic effect on 3D cardiac spheroids; assay type: cell-based, Swiss Webster mice; settings: 72 h, up to 500 µM, read-out: Toxicity 3D Culture (CC50)
Description: (§2) Primary heart muscle cell cultures were obtained from fetuses of female Swiss Webster mice, as previously described. After heart removal and ventricle fragmentation, tissue fragments were dissociated in a trypsin and collagenase type II (Worthington Biochemical Corporation, Lakewood, USA) dissociation solution. For two-dimensional (2D) cultures, the isolated cardiac cells were seeded at a density of 5 × 10^4 cells/well in gelatin (0.1%)-coated 96-well white culture plates. Three-dimensional (3D) cardiac spheroids were obtained after seeding isolated heart muscle cells at a density of 2.5 × 10^4 cells/well in an agarose (1%)-coated 96-well U-bottom plate, as described in [35]. Heart muscle cells cultures were cultivated in Dulbecco’s modified Eagle medium (DMEM) supplemented with 7% FBS, 2.5 mM CaCl2, 2% embryo extract, and 1 mM L-glutamin and maintained at 37 °C in a humidified atmosphere of 5% CO2. All procedures with animals were approved by the Animal Care and Use Committee at the Oswaldo Cruz Institute (license L-017/2022).
as §1, with “The” for “VERO cells (Rio de Janeiro Cell Bank code 0245) were cultivated in RPMI 1640 medium supplemented with 10% fetal bovine serum (FBS) at 37 °C in a humidified atmosphere of 5% CO2. Confluent monolayers were dissociated with trypsin-EDTA solution (0.025%), and isolated cells were seeded on culture plates or flasks, depending on the experimental assay. The VERO cell cultures were used in cytotoxicity and phenotypic screening assays and for obtaining culture-derived trypomastigotes. The”

[3] = tested on: heart muscle cells (2D culture); assay: Cardiotoxic effect on 2D primary heart muscle cell culture; assay type: cell-based, Swiss Webster mice; settings: heart muscle cell monolayers, 72 h, up to 500 µM; read-out: Toxicity 2D Culture (CC50)
Description: as §2
as §1, with “The” for “VERO cells (Rio de Janeiro Cell Bank code 0245) were cultivated in RPMI 1640 medium supplemented with 10% fetal bovine serum (FBS) at 37 °C in a humidified atmosphere of 5% CO2. Confluent monolayers were dissociated with trypsin-EDTA solution (0.025%), and isolated cells were seeded on culture plates or flasks, depending on the experimental assay. The VERO cell cultures were used in cytotoxicity and phenotypic screening assays and for obtaining culture-derived trypomastigotes. The”

[4] = Cytotoxicity on VERO cell monolayers (CellTiter Glo, 72 h); assay type: cell-based; settings: African green monkey, VERO cell monolayers, ATP level, read-out: Cytotoxicity VERO Cells CC50
Description: as §1

[5] = Cardiotoxic effect on 3D cardiac spheroids; assay type: cell-based, Swiss Webster mice; settings: Swiss Webster, mouse, 3D cardiac spheroids of primary fetal heart muscle cells, 3D cardiac microtissue, up to 500 µM, read-out: Toxicity 3D Culture (CC50)
Description: as §2
as §1, with “The” for “VERO cells (Rio de Janeiro Cell Bank code 0245) were cultivated in RPMI 1640 medium supplemented with 10% fetal bovine serum (FBS) at 37 °C in a humidified atmosphere of 5% CO2. Confluent monolayers were dissociated with trypsin-EDTA solution (0.025%), and isolated cells were seeded on culture plates or flasks, depending on the experimental assay. The VERO cell cultures were used in cytotoxicity and phenotypic screening assays and for obtaining culture-derived trypomastigotes. The”

[6] = Cardiotoxic effect on 2D primary heart muscle cell culture; assay type: cell-based, Swiss Webster mice; settings: Swiss Webster, mouse, primary fetal heart muscle cells, 2D monolayer culture, heart muscle cell monolayers, up to 500 µM, read-out: Toxicity 2D Culture (CC50)
Description: as §2
as §1, with “The” for “VERO cells (Rio de Janeiro Cell Bank code 0245) were cultivated in RPMI 1640 medium supplemented with 10% fetal bovine serum (FBS) at 37 °C in a humidified atmosphere of 5% CO2. Confluent monolayers were dissociated with trypsin-EDTA solution (0.025%), and isolated cells were seeded on culture plates or flasks, depending on the experimental assay. The VERO cell cultures were used in cytotoxicity and phenotypic screening assays and for obtaining culture-derived trypomastigotes. The”

| Compound | CC50 [1] [µM] | CC50 [2] [µM] | CC50 [3] [µM] | CC50 at 72 h [4] [µM] | CC50 at 72 h [5] [µM] | CC50 at 72 h [6] [µM] |
| --- | --- | --- | --- | --- | --- | --- |
| 4-Phenyl-1-(m-tolyl)-1H-1,2,3-triazole [Triazole 1f] | 86.8 ± 2.73 | > 500 | 111 ± 10.1 | – | – | – |
| COc1ccc(-n2cc(-c3ccccc3)nn2)cc1 [Triazole 1d, 1-(4-Methoxyphenyl)-4-phenyl-1H-1,2,3-triazole] | – | – | – | > 500 | > 500 | > 500 |
| c1ccc(-c2cn(-c3ccccc3)nn2)cc1 [Triazole 1g, 1-(4-Diphenyl)-1H-1,2,3-triazole] | – | – | – | > 500 | > 500 | > 500 |
